{
  "source": "patent US12187740B2",
  "about": "“Polymorphic forms of bictegravir potassium” (HONOUR LAB LIMITED, priority 2021, dated 2025)",
  "experiment": "Storage stability test of crystalline Form HN1 (PXRD, HPLC purity, Karl Fischer water content)",
  "format": "physicochemical",
  "set-up": "Water: unit not given here",
  "conditions": "for Purity: HPLC; for Water: Karl Fischer",
  "description": "X-ray powder diffraction spectrum was measured on a BRUKER axs D8 advance X-ray powder diffractometer having a copper-Ka radiation. Approximately 1 gm of sample was gently flattered on a sample holder and scanned from 2 to 50 degrees two-theta, at 0.02 degrees two theta per step and a step time of 10.8 seconds. The sample was simply placed on the sample holder. The sample was rotated at 30 rpm at a voltage 40 KV and current […].\nIn another aspect of the present invention Bictegravir potassium crystalline Form HN1 is stable at 5±3° C. and 25±2° C./60±5% RH (Relative humidity) and has the following stability data:\nThe stability of samples was tested by PXRD, HPLC and water content was measured by Karl Fischer method.",
  "key": {"[1]": {"conditions": "storage 25 ± 2° C./RH 60 ± 5%, 1st month"}, "[2]": {"conditions": "storage 25 ± 2° C./RH 60 ± 5%, 3rd month"}, "[3]": {"conditions": "storage 25 ± 2° C./RH 60 ± 5%, 6th month"}, "[4]": {"conditions": "storage 25 ± 2° C./RH 60 ± 5%, Initial"}, "[5]": {"conditions": "at 5±3° C. and 25±2° C./60±5% RH"}},
  "data": [
    {"smiles": "O=C(NCc1c(F)cc(F)cc1F)c1cn2c(c([O-])c1=O)C(=O)N1[C@H]3CC[C@H](C3)O[C@@H]1C2.[K+]", "note": "[Form HN1, Bictegravir potassium]", "values": [
      {"measurement": "Purity", "setting": "storage 5 ± 3° C., 1st month", "result": 99.87},
      {"measurement": "Purity", "setting": "storage 5 ± 3° C., 3rd month", "result": 99.81},
      {"measurement": "Purity", "setting": "storage 5 ± 3° C., 6th month", "result": 99.81},
      {"measurement": "Purity", "setting": "storage 5 ± 3° C., Initial", "result": 99.88},
      {"measurement": "Purity", "setting": "[1]", "result": 99.87},
      {"measurement": "Purity", "setting": "[2]", "result": 99.80},
      {"measurement": "Purity", "setting": "[3]", "result": 99.81},
      {"measurement": "Purity", "setting": "[4]", "result": 99.88},
      {"measurement": "Water", "setting": "storage 5 ± 3° C., 1st month", "result": 2.8},
      {"measurement": "Water", "setting": "storage 5 ± 3° C., 3rd month", "result": 2.8},
      {"measurement": "Water", "setting": "storage 5 ± 3° C., 6th month", "result": 2.8},
      {"measurement": "Water", "setting": "storage 5 ± 3° C., Initial", "result": 2.2},
      {"measurement": "Water", "setting": "[1]", "result": 2.8},
      {"measurement": "Water", "setting": "[2]", "result": 2.9},
      {"measurement": "Water", "setting": "[3]", "result": 2.8},
      {"measurement": "Water", "setting": "[4]", "result": 2.2},
      {"measurement": "change in PXRD pattern after storage", "setting": "[5]", "result": "no change"},
      {"measurement": "change in water content after storage", "setting": "[5]", "result": "no change"},
      {"measurement": "decrease in purity after storage", "setting": "[5]", "result": "no significant decrease"},
      {"measurement": "stability on storage (overall)", "setting": "[5]", "result": "physically and chemically stable"},
      {"measurement": "PXRD", "setting": "storage 5 ± 3° C., 1st month", "result": "Form HN1"},
      {"measurement": "PXRD", "setting": "storage 5 ± 3° C., 3rd month", "result": "Form HN1"},
      {"measurement": "PXRD", "setting": "storage 5 ± 3° C., 6th month", "result": "Form HN1"},
      {"measurement": "PXRD", "setting": "storage 5 ± 3° C., Initial", "result": "Form HN1"},
      {"measurement": "PXRD", "setting": "[1]", "result": "Form HN1"},
      {"measurement": "PXRD", "setting": "[2]", "result": "Form HN1"},
      {"measurement": "PXRD", "setting": "[3]", "result": "Form HN1"},
      {"measurement": "PXRD", "setting": "[4]", "result": "Form HN1"}
    ]}
  ]
}
